In paper PMC4390550 (Journal of the American Chemical Society, 2015):
Where a name gives a salt, the structure may show the parent alone.

Legend:
[1] = biological target: T1, GABA-AT (Sus scrofa, UniProt P80147); test: Time-dependent inhibition; type: biochemical, pig; conditions: preliminary in vitro results
[2] = biological target: T1, GABA-AT; test: Inhibition of GABA-AT, coupled assay with SSDH, Ki by Cheng-Prusoff; type: biochemical, pig
[3] = system: GABA-AT; conditions: aromatization mechanism; cited from earlier work
[4] = system: aspartate aminotransferase; conditions: cited from earlier work
[5] = system: infantile spasms; conditions: cited from earlier work
[6] = system: alanine aminotransferase; conditions: cited from earlier work

T1 sequence (P80147 29-500): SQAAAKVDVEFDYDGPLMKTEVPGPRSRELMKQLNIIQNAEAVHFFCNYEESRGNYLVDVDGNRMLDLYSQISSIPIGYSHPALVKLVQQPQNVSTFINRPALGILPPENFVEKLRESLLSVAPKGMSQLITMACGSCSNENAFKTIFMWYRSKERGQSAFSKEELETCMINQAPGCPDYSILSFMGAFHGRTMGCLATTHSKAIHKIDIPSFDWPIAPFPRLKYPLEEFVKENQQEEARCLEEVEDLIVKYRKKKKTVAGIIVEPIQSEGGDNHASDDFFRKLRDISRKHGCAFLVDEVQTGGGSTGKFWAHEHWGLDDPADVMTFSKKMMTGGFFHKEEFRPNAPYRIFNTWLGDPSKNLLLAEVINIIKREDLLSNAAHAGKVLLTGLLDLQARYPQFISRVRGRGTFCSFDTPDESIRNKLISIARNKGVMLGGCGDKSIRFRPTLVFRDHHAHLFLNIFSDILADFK

Structure (SMILES): Cl.N[C@@H]1CS[C@@H](C(=O)O)C1 [Compound 18, (2R,4S)-4-Aminotetrahydrothiophene-2-carboxylic acid hydrochloride]
- inactivation of GABA-AT (in words) [1]: potent inactivators

Structure (SMILES): N[C@H]1CC(C(=O)O)S(=O)(=O)C1 (stereo partly drawn) [Compound 19, (4S)-4-Aminotetrahydrothiophene-2-carboxylic acid 1,1-dioxide hydrochloride]
- Ki ([2]; reversible inhibition, pH 8.5, 25 °C, 10 mM GABA): 3.2 ± 0.7 mM

Structure (SMILES): N[C@H]1C=C(C(=O)O)SC1 [(S)-4-Amino-4,5-dihydro-2-thiophenecarboxylic acid]
- inactivation of GABA-AT (in words) [3]: known inactivator
- inactivation of aspartate aminotransferase (in words) [4]: inactivator

Structure (SMILES): N[C@@H]1CC[C@H](C(=O)O)C1 [Compound 39, (1S,3R)-3-aminocyclopentane-1-carboxylic acid]
- inactivation of GABA-AT (in words) [1]: not an inactivator
- reversible inhibition of GABA-AT (in words) ([2]; preliminary in vitro results): good competitive inhibitor

Structure (SMILES): C=CC(N)CCC(=O)O (centres unmarked) [vigabatrin]
- time spasms suppression stayed effective ([5]; rat): 1 days

Structure (SMILES): N[C@H]1C[C@@H](C(=O)O)CC1=C(F)F [Compound 16]
- inactivation or inhibition of alanine aminotransferase [6]: did not inactivate or inhibit
- inactivation or inhibition of aspartate aminotransferase [4]: did not inactivate or inhibit
- margin of safety ([5]; compared with vigabatrin): much larger margin of safety than vigabatrin
- doses that suppressed spasms ([5]; rat): 0.1 to 1 mg/kg/day
- effective doses lower than those for vigabatrin ([5]; rat): > 100 fold
- time spasms suppression stayed effective ([5]; rat): 3 days

Structure (SMILES): Cl.N[C@@H]1CS[C@H](C(=O)O)C1 [Compound 17, (2S,4S)-4-Aminotetrahydrothiophene-2-carboxylic acid hydrochloride]
- inactivation of GABA-AT (in words) [1]: potent inactivators
